The experiment has as its target HDAC1 (Homo sapiens, UniProt Q13547). Conditions: for T(½): Broad Substrate A; for mechanism of inhibition (on/off kinetics): progress curves monitored for 4 hours and reversibility by 100-fold dilution.

Chain of HDAC1 (Q13547 whole entry): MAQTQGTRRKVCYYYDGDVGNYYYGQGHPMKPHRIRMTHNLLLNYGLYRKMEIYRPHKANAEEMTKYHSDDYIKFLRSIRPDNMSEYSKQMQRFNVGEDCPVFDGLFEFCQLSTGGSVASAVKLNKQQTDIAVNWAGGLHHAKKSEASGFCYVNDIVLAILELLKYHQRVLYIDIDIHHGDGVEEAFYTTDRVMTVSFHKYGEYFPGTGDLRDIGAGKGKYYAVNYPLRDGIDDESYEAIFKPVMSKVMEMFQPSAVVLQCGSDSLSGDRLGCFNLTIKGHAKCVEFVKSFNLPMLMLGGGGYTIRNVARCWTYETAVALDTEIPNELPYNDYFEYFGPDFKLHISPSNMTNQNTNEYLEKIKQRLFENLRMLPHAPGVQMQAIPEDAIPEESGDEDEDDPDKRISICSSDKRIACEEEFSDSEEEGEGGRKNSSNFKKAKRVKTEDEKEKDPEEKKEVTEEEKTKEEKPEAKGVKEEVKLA

Take `O=C(CCCCCCC(=O)Nc1ccccc1)NO` [SAHA]: the “T(½)” value is given as less than 4 min and the “mechanism of inhibition (on/off kinetics)” value is “fast on/fast off inhibitor”.

Regarding `CC(=O)Nc1ccc(C(=O)Nc2ccccc2N)cc1` [CI-994], the “T(½)” value amounted to 74 min and the “mechanism of inhibition (on/off kinetics)” value is recorded as “slow on/slow off inhibitor”.

The values above are taken from patent US10626438B2, “Fluorescent substrates for determining lysine modifying enzyme activity” (The Broad Institute, Inc., priority 2011, dated 2020).
